Values of other authors as cited in US5691323A, “Muscarine antagonists” (Merck & Co., Inc., priority 1995, dated 1997).

Assays:
[1] = test system: smooth muscle (ordinarily called M3 type); conditions: background
pupil = conditions: background
axial elongation = conditions: background
[2] = background statement

SMILES	Selectivity for smooth muscle (M3 type) receptors [1]	Pupil dilation (mydriasis) (pupil)	Effect on axial elongation / enlargement of the eye (axial elongation)	Sensitization assay result [2]
C[N+]1(C)CCC(OC(=O)C(c2ccccc2)c2ccccc2)CC1 [Example 4-DAMP, 4-diphenylacetoxy-N-methylpiperadine methiodide]	relatively selective antagonist for smooth muscle	–	–	–
CN1CCN(CC(=O)N2c3ccccc3C(=O)Nc3cccnc32)CC1 [Pirenzepine]	–	far less effective at pupil dilation than atropine	inhibits axial elongation	positive
CN1CCc2cccc3c2[C@H]1Cc1ccc(O)c(O)c1-3 [apomorphine]	–	–	inhibit or actually prevent the axial enlargement of the eye	–
CN1[C@@H]2CC[C@H]1C[C@@H](OC(=O)C(CO)c1ccccc1)C2 (stereo partly shown) [atropine]	–	causes mydriasis	–	positive
